Reference: PMC9237960, “Identification of a New Antifungal Peptide W1 From a Marine Bacillus amyloliquefaciens Reveals Its Potential in Controlling Fungal Plant Diseases” (Frontiers in Microbiology, 2022)
In brackets after ≈: the same amount, converted by molar mass. Peptide text beside a SMILES is read from it.

Tested on: F. oxysporum
Type: cell-based, Fusarium oxysporum
Details: pH 9.73
Procedure: The minimum inhibitory concentration (MIC) of W1 against F. oxysporum and S. sclerotiorum was determined using the paper disk diffusion method ([Wen et al., 2014]; [Rao et al., 2015]). In brief, the purified W1 was diluted into 20 mM piperazine buffer (pH 9.73) with final concentrations of 0.464, 0.232, 0.116, 0.058, and 0.029 μg/μl, respectively. On paper disks placed 2 cm from the hyphal margin of fungus on a PDA plate, 60 μl of serially diluted samples were added. Later, the plate was incubated at 30°C for 24–48 h. The MIC was determined as the lowest concentration of W1 that could inhibit visible mold growth and was calculated as the total peptide concentration added to each paper disk (microgram per disk). The piperazine buffer (20 mM) was used as the blank control. All assays were repeated three times independently.

MIC against F. oxysporum: 58 µg/mL (≈ 24 µM)
SMILES: CC[C@H](C)[C@H](NC(=O)[C@H](CC(C)C)NC(=O)[C@H](CC(C)C)NC(=O)[C@H](Cc1ccccc1)NC(=O)[C@H](Cc1ccc(O)cc1)NC(=O)[C@H](CC(C)C)NC(=O)[C@@H](NC(=O)[C@H](C)NC(=O)[C@H](Cc1ccccc1)NC(=O)[C@H](CCSC)NC(=O)[C@H](CC(C)C)NC(=O)[C@@H](NC(=O)[C@@H](NC(=O)[C@@H]1CCCN1C(=O)[C@@H](NC(=O)[C@@H](NC(=O)[C@@H](NC(=O)CN)[C@@H](C)O)[C@@H](C)CC)C(C)C)[C@@H](C)CC)[C@@H](C)CC)C(C)C)C(=O)N[C@@H](CCCNC(=N)N)C(=O)N1CCC[C@H]1C(=O)N[C@@H](CCC(N)=O)C(=O)O [W1] (H-GTIVPIILMFAVLYFLLIRPQ-OH)
